In patent publication US9415069B2, “Immunosuppressive cells and methods of making and using thereof” (National Health Research Institutes, priority 2012, dated 2016):
Entries after “also recorded” stand apart in the source; their conditions may differ.

Assays:
[1] = test system: human monocyte-derived dendritic cells (MDDCs); test: Surface marker phenotype of human MDDCs by flow cytometry; format: cell-based; settings: for effect on CD40 expression: human iMDDCs supplemented with GRO isoform, day 7
Protocol: Human monocyte-derived dendritic cells (MDDCs) were generated from leukaphereses obtained from healthy donors. Peripheral blood mononuclear cells (PBMCs) were purified by Fycoll-Hypaque Plus (GE Health-Pharmacia, Uppsala, Sweden) density centrifugation. CD14^+ monocytes were isolated using the human CD14^+ Cell Isolation Kit (MACS, Miltenyi Biotec, Inc., Auburn, Calif., USA) according to the manufacturer's instructions. The purified CD14^+ cells (1×10^6/mL) were subsequently cultured in 2 mL MSC-CM or α-MEM completed medium with 10% pooled AB-type human serum supplemented with rhGM-CSF (80 ng/mL) and rhIL-4 (80 ng/mL) (Peprotech, NJ) in the presence or absence of GRO chemokines to induce their differentiation into DCs. An additional 1 mL of medium containing the same concentrations of rhGM-CSF and rhIL-4 with or without GRO chemokines was added to each group of cells on day 3. Half-volume of culture medium was replaced with an equal volume of fresh medium containing the same concentrations of rhGM-CSF and rhIL-4 on day 5. Maturation of MDDCs (mature DCs, mMDDCs) was induced by adding 1 μg/mL LPS to the culture medium of iMDDCs on day 5 and cells were further cultured for another 48 hours. Phenotypic changes in immature DCs (iMDDCs) and mature DCs (mMDDCs) were monitored by FACS analysis on day 7. The study protocols were approved by the Institutional Review Board of Human Subject Research Ethics Committee of Academia Sinica (AS-IRB01-10113) and the Institutional Review Board of Research Ethics Committee of National Health Research Institutes (EC 1001101).
(§1) The phenotypic profiles of monocytes, iMDDCs and mMDDCs were obtained by staining 1×10^5 cells with fluorochrome-labeled antibodies (Abs) against CD11c, HLA-DR, CD80, CD86, CD83, CD40, and DC-SIGN. The fluorescence intensity was measured by flow cytometry. The corresponding isotype-matched controls used were FITC-IgG1, FITC-IgG2a, PE-IgG2a, and PE-IgG2b (BD Biosciences, San Jose, Calif., USA). Surface-labeled cells were analyzed using a FACS Calibur-flow cytometer (BD Biosciences). For cell purification, sorting was performed on a FACS Aria cell sorter (BD Biosciences). The purity of individual sorted cell populations was greater than 95%.

[2] = test system: immature MDDCs (iDCs); test: Endocytosis test (FITC-dextran uptake); format: cell-based, human
Protocol: The endocytic activity of iMDDCs or mMDDCs was measured by analyzing the cellular uptake of FITC-dextran (40 kD, FD40S, Sigma-Aldrich) as quantified by flow cytomerty. Cells (5×10^4 cells/sample/96 well V bottom plate) were incubated in RPMI-1640 medium with 1 mg/mL FITC-dextran for 30 min at 37° C. After incubation, cells were washed twice with staining buffer to remove free reagent then fixed with 1% paraformaldehyde. The signal from FITC-dextran endocytosed by cells was analyzed by FACS. Data analysis was performed using the FlowJo version 5.7.2 software. The signal obtained for cells incubated with medium in the absence of FITC-dextran was used as negative control.

[3] = test system: mature MDDCs co-cultured with allogeneic T cells; test: MLR assay (allogeneic T-cell proliferation, [3H]-thymidine); format: cell-based, human
Protocol: Monocyte-derived cells (3×10^4) at different stages of differentiation were irradiated at 30 Gy using an X-ray biological irradiator (X-ray R-2000, Rad Source Technologies, Inc, Alpharetta, Ga., USA) and then cultured with purified allogenic CD3 T cells (1:10) in complete culture medium in 96-well U-bottom plate. X-ray irradiated myeloid cells and allogenic T lymphocytes were placed in a humidified CO2 incubator at 37° C. After 96 hours, [^3H]-thymidine (1 μCi) was added to each well containing either monocytes-, iMDDCs-, or mMDDCs mixed with T cells, and further incubated for 16 hours. Cells were then harvested using a Filtermate 96-well harvester and radioactivity (cpm) measured as an index of cell proliferation in a Packard microplate scintillation and luminescence counter (Perkin-Elmer-Packard; Waltham, Mass., USA).

[4] = test system: CD11b+ Gr-1+ BMDCs; test: ARG-1 and iNOS expression in mouse BMDCs; format: cell-based
Protocol: Total RNA was extracted with the Trizol reagent and converted to cDNA using a ReverTra Ace set (Toyobo Life Science, Osaka, Japan), according to manufacturer's instructions. Real-time PCR analysis was performed using an ABI Prism 7900 system (Applied Biosystems, Foster City, Calif., USA). Samples were treated according to the following program: […], 94° C. for 10 min, and 40 cycles of 95° C. for 15 s and 60° C. for 1 min. Analyses were performed in triplicate. For each sample, the cycle threshold (Ct) values were determined. Results were normalized to the GAPDH gene on the same plate. The levels of mRNA expression in different cell groups were calculated using the 2ΔCt method. Intron-spanning primers specific for each gene were designed. Their sequences are as follows: human GAPDH, […] (forward primer, F, SEQ ID NO:4), […] (reverse primer, R, SEQ ID NO:5); human IL-10, […] (F, SEQ ID NO:6), […] (R, SEQ ID NO:7); human IDO, […] (F, SEQ ID NO:8), TGACCTTTGCCCCACACAT (R, SEQ ID NO:9); human matrix-metallopeptidase-9 (MMP-9), […] (F, SEQ ID NO:10), […] (R, SEQ ID NO:11); human IL-4, […] (F, SEQ ID NO:12), GCCTGTGGAACTGCTGTGC (R, SQ ID NO:13); human IL-12p40, CGGTCATCTGCCGCAAA (F, SEQ ID NO:14), […] (R, SEQ ID NO:15); human TNF-α, […] (F, SEQ ID NO:16), CAGGCAGAAGAGCGTGGTG (R, SEQ ID NO:17); human IFN-γ, […] (F, SEQ ID NO:18), […] (R, SEQ ID NO:19); human Cox2, […] (F, SEQ ID NO:20), […] (R, SEQ ID NO:21); human PD-L1, […] (F, SEQ ID NO:22), […] (R, SEQ ID NO:23); human PD-L2, […] (F, SEQ ID NO:24), […] (R, SEQ ID NO:25); human TGF-β, […] (F, SEQ ID NO:26), […] (R, SEQ ID NO:27); human IL-6, […] (F, SEQ ID NO:28), […] (R, SEQ ID NO:29); IL-1β, […] (F, SEQ ID NO:30), […] (R, SEQ ID NO:31); mouse GAPDH, GATGCAGGGATGATGTTC (F, SEQ ID NO:32), TGCACCACCAACTGCTTAG (R, SEQ ID NO:33); mouse Arginase 1(Arg-1), […] (F, SEQ ID NO:34), […] (R, SEQ ID NO:35); mouse iNOS, […] (F, SEQ ID NO:36), […] (R, SEQ ID NO:37); mouse IFN-γ, […] (F, SEQ ID NO:38), […] (R, SEQ ID NO:39).
(§2) Murine bone marrow-derived dendritic cells (BM-DCs) were harvested and differentiated into dentritic cells as previously described (Song et al., 2011). Briefly, bone marrow cells from C57BL/6 mice were cultured at a density of 2×10^5 cells/mL in petri dishes containing 10 mL of complete RPMI-1640 medium with 200 U/mL (20 ng/mL) recombinant mouse GM-CSF in the presence or absence of recombinant mouse GRO chemokine. On day 3, half of the volume of the culture medium was replaced by complete RPMI medium containing 20 ng/mL of […] combined with or without GRO. On day 6, BMDCs from the different treatment groups were collected from each dish, washed and characterized.

[5] = test system: MDDCs; test: Real-time PCR of selected genes in MDDCs from 7-day cultures; format: cell-based, human; settings: MDDC differentiation in presence of GRO-γ
Protocol: Total RNA was extracted with the Trizol reagent and converted to cDNA using a ReverTra Ace set (Toyobo Life Science, Osaka, Japan), according to manufacturer's instructions. Real-time PCR analysis was performed using an ABI Prism 7900 system (Applied Biosystems, Foster City, Calif., USA). Samples were treated according to the following program: 5° C. for 2 min, 94° C. for 10 min, and 40 cycles of 95° C. for 15 s and 60° C. for 1 min. Analyses were performed in triplicate. For each sample, the cycle threshold (Ct) values were determined. Results were normalized to the GAPDH gene on the same plate. The levels of mRNA expression in different cell groups were calculated using the 2ΔCt method. Intron-spanning primers specific for each gene were designed. Their sequences are as follows: human GAPDH, […] (forward primer, F, SEQ ID NO:4), […] (reverse primer, R, SEQ ID NO:5); human IL-10, […] (F, SEQ ID NO:6), […] (R, SEQ ID NO:7); human IDO, […] (F, SEQ ID NO:8), TGACCTTTGCCCCACACAT (R, SEQ ID NO:9); human matrix-metallopeptidase-9 (MMP-9), […] (F, SEQ ID NO:10), […] (R, SEQ ID NO:11); human IL-4, […] (F, SEQ ID NO:12), GCCTGTGGAACTGCTGTGC (R, SQ ID NO:13); human IL-12p40, CGGTCATCTGCCGCAAA (F, SEQ ID NO:14), […] (R, SEQ ID NO:15); human TNF-α, […] (F, SEQ ID NO:16), CAGGCAGAAGAGCGTGGTG (R, SEQ ID NO:17); human IFN-γ, […] (F, SEQ ID NO:18), […] (R, SEQ ID NO:19); human Cox2, […] (F, SEQ ID NO:20), […] […]

[6] = test system: MDDCs; test: ELISA of cytokines in MDDC supernatants; format: cell-based, human; settings: MDDCs differentiated with GRO-γ, recultured 3 days
Protocol: Supernatants from MDDCs alone (5×10^4), CD3^+ purified T-cells alone (isolated by the human CD3^+ Cell Isolation Kit, MACS, Miltenyi Biotec, Inc., 5×10^5), or MDDCs (5×10^4) co-cultured with CD3^+ purified T-cells (5×10^5) were harvested, and the concentrations of IL-4, IL-10, IL-12, INF-γ, IL-6 and TNF-α in supernatants were determined in triplicates using commercial ELISA kits according to the manufacturer's protocols (R&D systems).

[7] = test system: IDO in iDCs; test: Intracellular IDO staining, confocal microscopy; format: cell-based, human; settings: iDCs differentiated in presence of GRO-γ
Protocol: MDDCs were generated in the presence or absence of GRO-γ and then analyzed for the intracellular expression of the IDO protein. Cells (5×10^4) were plated onto poly-L-lysine-coated glass slides for 15 min, and washed twice quickly with 0.5 mL PBS. Cells were fixed by adding 0.5 mL of 1% paraformaldehyde (Sigma-Aldrich) for 10 minutes, and then subsequently washed with PBS three times and incubated in 0.5 mL of 1% BSA/PBS for 30 min at room temperature. Cells were washed with 0.1% (v/v) NP-40/PBS three times, and then incubated with 0.5% BSA/PBS containing 1:50 diluted mouse anti-human IDO antibody (Chemicon Inc, Temecula, Calif., USA) at room temperature for 1 h. Cells were further washed with 0.1% (v/v) NP-40/PBS to remove unbound antibody, and then incubated with 1:150 diluted anti-mouse IgG conjugated with DyLight 488 (Sigma-Aldrich) for 1 h at room temperature. After three final washes with 0.1% (v/v) NP-40/PBS, the slides were mounted with 10% Glycerol/PBS and sealed with nail polish. Fluorescent images were captured using a Leica TCS SP5 camera (Leica Camera AG, Solms, Germany).

[8] = test system: BMDCs from C57BL/6 mice; test: FACS of CD11b+ Gr-1+ cells in mouse BMDCs; format: cell-based; settings: GM-CSF with or without GRO-γ, six days
Protocol: as §1, §2

Compound | effect on CD40 expression [1] | reversal of suppressive effect of GRO-γ on selected surface markers ([1]; iDCs and mDCs, SB225002 250 nM pretreatment 30 min plus GRO-γ) | DC-SIGN expression ([1]; iDCs and mDCs, addition of SB225002 with GRO-γ) | blocking of GRO-γ effect on endocytic activity of iDCs ([2]; SB225002 250 nM plus GRO-γ) | blocking of GRO-γ effect on ability of mDCs to stimulate T-cell proliferation ([3]; SB225002 250 nM plus GRO-γ) | reversal of induction of ARG-1 and iNOS genes ([4]; GM-CSF/GRO-γ/SB225002 treated BMDCs) | surface expression of CD40, CD83, CD80, CD11c, CD86 and DC-SIGN ([1]; iDCs, recombinant GRO-γ 250 ng/mL vs absence) | DC-SIGN expression ([1]; mDCs, addition of GRO-γ) | endocytic activity of iDCs ([2]; GRO-γ 250 ng/mL) | ability of mDCs to stimulate T-cell proliferation in mixed lymphocyte reaction ([3]; GRO-γ 250 ng/mL) | expression levels of IL-10, IL-4, TGF-β, IL-1β, IL-6, COX2, PD-L1, PD-L2, MMP-9 and IDO genes [5] | mRNA levels of TNF-α, IFN-γ and IL-12 [5] | levels of IFN-γ and IL-12 in supernatants [6] | levels of IL-4 and IL-10 in supernatants [6] | intracellular expression of IDO [7] | percentage (frequency) of double positive CD11b+ Gr-1+ cells in BMDCs [8] | protein expression and enzymatic activity of Arg-1 and iNOS ([4]; GRO-γ treated BMDCs) | mRNA levels of ARG-1 and iNOS ([4]; GRO-γ-treated BMDCs vs BMDCs) | expression of the Arg-1 gene, the iNOS gene, and the MDSC-related genes ([4]; presence of GRO-γ during BMDC differentiation)
GRO-α: recombinant human GRO chemokine CXCL1 (SEQ ID NO:1), PeproTech | significant inhibitory effects | – | – | – | – | – | – | – | – | – | – | – | – | – | – | – | – | – | –
O=C(Nc1ccc([N+](=O)[O-])cc1O)Nc1ccccc1Br [SB225002, N-(2-Hydroxy-4-nitrophenyl)-N′-(2-bromophenyl) urea, reference compound] | – | significantly reversed | not affected | blocked | blocked | reversed the induction | – | – | – | – | – | – | – | – | – | – | – | – | –
GRO-γ: recombinant GRO chemokine CXCL3 (SEQ ID NO:3); human from PeproTech, mouse from R&D Systems | significant inhibitory effects | – | – | – | – | – | significantly reduced | not affected | significantly down-regulated | significantly down-regulated | significantly up-regulated | significantly down-regulated | reduced levels | elevated levels | increase in intracellular expression | did not depend on the presence of GRO-γ; also recorded: similar | increased | elevated | up-regulated
